From patent US10392368B2, “Pyrazolo and triazolo bicyclic compounds as JAK kinase inhibitors” (THERAVANCE BIOPHARMA R&D IP, LLC, priority 2017, dated 2019)
Where two headings read alike, the source gives them in different places.

Legend:
JAK1 = target: T1, JAK1 (Homo sapiens, UniProt P23458); assay: Biochemical JAK1 kinase assay (LanthaScreen); settings: for Ki: read-out: JAK 1 (pKi) (converted)
T1 construct: GST; purchased Life Technologies
Method in brief: (§1)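 GST-tagged JAK enzyme and GFP-STAT1 peptide preincubated with compound 1 h, then ATP added; 1 h kinase reaction at ambient temperature, pH 7.5 HEPES/MgCl2 buffer, 1% DMSO. Tb-anti-pSTAT1 (pTyr701) TR-FRET, 520/495 nm ratio; IC50 from 4-parameter fit, converted to pKi via Cheng-Prusoff.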

[1] = system: IL-2 stimulated pSTAT5 in Tall-1 T cells; assay: Cellular JAK3 potency assay: inhibition of IL-2 stimulated pSTAT5 in Tall-1 T cells; assay type: cell-based, human; settings: for IC50: Homo sapiens, read-out: Tall-1 (pIC50) (converted)
Method in brief: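 In human Tall-1 T cells, IL-2 (300 ng/ml final, 30 min) drives STAT5 phosphorylation after a 1 h compound pretreatment. Lysates are assayed for pSTAT5 by AlphaLisa, and IC50 derived from signal versus concentration is expressed as pIC50.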

JAK2 = target: T2, JAK2 (Homo sapiens, UniProt O60674); assay: Biochemical JAK2 kinase assay (LanthaScreen); settings: for Ki: read-out: JAK 2 (pKi) (converted)
T2 construct: GST; purchased Life Technologies
T2 sequence (O60674 whole entry): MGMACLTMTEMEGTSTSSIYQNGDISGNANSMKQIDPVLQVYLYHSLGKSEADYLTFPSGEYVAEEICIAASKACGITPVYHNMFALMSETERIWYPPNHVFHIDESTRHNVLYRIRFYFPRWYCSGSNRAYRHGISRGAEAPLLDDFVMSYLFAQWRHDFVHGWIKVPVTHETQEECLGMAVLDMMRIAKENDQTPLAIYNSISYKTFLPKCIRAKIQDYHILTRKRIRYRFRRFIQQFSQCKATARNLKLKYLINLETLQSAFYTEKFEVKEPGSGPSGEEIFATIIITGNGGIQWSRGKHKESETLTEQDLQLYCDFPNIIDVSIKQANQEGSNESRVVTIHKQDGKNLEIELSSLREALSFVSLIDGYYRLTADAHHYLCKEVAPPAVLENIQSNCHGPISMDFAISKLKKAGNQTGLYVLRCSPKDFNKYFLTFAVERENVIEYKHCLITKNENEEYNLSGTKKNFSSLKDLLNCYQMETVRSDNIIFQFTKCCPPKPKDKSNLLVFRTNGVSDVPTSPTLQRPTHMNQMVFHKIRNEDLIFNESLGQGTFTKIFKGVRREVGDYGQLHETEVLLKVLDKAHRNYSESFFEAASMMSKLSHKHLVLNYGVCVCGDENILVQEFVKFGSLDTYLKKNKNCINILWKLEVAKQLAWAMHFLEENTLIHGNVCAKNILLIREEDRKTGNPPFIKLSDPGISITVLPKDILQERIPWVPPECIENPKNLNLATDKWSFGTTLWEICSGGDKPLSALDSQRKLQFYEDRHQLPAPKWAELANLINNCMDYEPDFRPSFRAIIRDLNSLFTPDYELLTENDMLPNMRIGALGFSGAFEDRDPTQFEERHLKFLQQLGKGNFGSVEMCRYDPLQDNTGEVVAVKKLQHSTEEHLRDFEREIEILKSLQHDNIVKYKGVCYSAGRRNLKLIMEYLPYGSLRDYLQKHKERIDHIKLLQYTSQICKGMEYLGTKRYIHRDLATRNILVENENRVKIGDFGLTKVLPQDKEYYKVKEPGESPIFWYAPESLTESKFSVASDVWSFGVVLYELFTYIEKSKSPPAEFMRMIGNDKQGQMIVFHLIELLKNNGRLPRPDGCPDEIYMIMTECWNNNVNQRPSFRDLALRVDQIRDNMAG
Method in brief: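 GST-tagged recombinant JAK2 pre-incubated 1 h at ambient temperature with compound and GFP-STAT1 peptide in HEPES pH 7.5/MgCl2 buffer, then ATP added for a 1 h reaction with 1% DMSO. TR-FRET read after EDTA and Tb-anti-pSTAT1 (pTyr701) addition; IC50 from 4-parameter fit, converted to pKi by Cheng-Prusoff.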

Tyk2 = target: T3, Tyk2 (Homo sapiens, UniProt P29597); assay: Biochemical Tyk2 kinase assay (LanthaScreen); settings: for Ki: read-out: Tyk 2 (pKi) (converted)
T3 construct: GST; purchased Life Technologies
T3 sequence (P29597 whole entry): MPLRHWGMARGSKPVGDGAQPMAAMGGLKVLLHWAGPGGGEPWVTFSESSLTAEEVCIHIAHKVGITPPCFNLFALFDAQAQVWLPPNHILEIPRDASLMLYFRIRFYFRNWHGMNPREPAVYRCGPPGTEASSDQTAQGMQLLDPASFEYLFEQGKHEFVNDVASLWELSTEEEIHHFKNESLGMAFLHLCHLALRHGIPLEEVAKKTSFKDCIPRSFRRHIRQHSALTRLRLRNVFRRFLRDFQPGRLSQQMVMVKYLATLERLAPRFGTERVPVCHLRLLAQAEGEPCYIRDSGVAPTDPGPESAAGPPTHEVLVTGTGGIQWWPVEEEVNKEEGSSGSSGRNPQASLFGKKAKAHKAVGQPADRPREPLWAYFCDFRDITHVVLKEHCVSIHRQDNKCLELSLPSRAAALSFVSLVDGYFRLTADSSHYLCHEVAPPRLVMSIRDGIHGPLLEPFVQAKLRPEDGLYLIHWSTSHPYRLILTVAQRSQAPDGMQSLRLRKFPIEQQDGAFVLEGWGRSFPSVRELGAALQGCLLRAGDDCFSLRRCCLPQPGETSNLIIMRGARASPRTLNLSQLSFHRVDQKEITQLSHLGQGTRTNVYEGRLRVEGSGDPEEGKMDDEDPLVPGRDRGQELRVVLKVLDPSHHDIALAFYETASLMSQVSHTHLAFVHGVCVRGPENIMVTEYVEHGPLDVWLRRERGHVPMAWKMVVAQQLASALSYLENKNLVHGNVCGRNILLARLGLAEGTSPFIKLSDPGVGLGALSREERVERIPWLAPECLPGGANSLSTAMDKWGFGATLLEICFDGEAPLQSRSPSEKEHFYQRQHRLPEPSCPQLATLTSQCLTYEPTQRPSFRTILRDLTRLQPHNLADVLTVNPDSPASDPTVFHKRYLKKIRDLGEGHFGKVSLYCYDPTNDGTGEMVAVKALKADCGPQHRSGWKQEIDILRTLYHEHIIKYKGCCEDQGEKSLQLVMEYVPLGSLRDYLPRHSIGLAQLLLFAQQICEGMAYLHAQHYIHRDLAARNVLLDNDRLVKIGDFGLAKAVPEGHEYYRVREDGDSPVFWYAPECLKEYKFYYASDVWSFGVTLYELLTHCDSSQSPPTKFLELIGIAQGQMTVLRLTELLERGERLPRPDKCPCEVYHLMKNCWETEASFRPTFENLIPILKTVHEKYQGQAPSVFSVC
Method in brief: as §1

JAK3 = target: T4, JAK3 (Homo sapiens, UniProt P52333); assay: Biochemical JAK3 kinase assay (LanthaScreen); set-up: GST; purchased Life Technologies; settings: for Ki: read-out: JAK 3 (pKi) (converted)
T4 sequence (P52333 1-1124): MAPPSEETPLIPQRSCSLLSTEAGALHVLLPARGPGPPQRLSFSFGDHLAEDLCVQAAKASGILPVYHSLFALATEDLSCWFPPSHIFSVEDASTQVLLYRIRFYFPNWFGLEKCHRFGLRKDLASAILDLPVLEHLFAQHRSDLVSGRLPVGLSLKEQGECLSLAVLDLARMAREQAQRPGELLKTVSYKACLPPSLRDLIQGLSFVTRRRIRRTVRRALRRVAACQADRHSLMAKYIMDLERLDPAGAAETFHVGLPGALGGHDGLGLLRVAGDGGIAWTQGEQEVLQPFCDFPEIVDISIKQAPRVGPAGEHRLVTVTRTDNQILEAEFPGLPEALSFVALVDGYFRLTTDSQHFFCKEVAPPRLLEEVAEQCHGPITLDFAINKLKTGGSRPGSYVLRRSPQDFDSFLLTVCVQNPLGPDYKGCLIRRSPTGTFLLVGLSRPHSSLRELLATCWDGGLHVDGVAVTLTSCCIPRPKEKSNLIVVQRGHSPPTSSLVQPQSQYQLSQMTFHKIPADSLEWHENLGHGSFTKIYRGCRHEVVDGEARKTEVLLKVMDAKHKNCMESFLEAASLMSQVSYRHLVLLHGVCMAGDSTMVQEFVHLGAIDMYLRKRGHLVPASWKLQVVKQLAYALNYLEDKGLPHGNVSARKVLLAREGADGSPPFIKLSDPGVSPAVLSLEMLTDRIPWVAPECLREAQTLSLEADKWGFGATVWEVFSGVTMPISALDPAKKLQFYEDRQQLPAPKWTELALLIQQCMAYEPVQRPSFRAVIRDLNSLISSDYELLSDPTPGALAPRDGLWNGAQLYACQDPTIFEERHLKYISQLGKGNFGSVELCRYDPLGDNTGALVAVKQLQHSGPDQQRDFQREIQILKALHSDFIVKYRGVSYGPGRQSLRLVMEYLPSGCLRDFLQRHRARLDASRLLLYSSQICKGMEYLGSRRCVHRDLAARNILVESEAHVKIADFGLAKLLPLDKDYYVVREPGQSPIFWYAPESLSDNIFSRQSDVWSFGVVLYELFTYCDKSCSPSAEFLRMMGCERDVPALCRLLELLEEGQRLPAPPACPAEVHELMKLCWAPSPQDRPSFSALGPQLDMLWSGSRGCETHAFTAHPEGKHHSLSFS
Method in brief: as §1

[2] = IL-2 stimulated pSTAT5, Tall-1 T cells
[3] = selectivity JAK3 over JAK1, difference of pKi
[4] = IL-2 stimulated pSTAT5 in Tall-1 T cells
[5] = selectivity: difference of pKi JAK3 and pKi JAK1
[6] = TALL-1, IL-2 stimulated pSTAT5 in Tall-1 T cells
[7] = TALL-1, IL-2 stimulated pSTAT5, Tall-1 T cells

T1 sequence (P23458 whole entry): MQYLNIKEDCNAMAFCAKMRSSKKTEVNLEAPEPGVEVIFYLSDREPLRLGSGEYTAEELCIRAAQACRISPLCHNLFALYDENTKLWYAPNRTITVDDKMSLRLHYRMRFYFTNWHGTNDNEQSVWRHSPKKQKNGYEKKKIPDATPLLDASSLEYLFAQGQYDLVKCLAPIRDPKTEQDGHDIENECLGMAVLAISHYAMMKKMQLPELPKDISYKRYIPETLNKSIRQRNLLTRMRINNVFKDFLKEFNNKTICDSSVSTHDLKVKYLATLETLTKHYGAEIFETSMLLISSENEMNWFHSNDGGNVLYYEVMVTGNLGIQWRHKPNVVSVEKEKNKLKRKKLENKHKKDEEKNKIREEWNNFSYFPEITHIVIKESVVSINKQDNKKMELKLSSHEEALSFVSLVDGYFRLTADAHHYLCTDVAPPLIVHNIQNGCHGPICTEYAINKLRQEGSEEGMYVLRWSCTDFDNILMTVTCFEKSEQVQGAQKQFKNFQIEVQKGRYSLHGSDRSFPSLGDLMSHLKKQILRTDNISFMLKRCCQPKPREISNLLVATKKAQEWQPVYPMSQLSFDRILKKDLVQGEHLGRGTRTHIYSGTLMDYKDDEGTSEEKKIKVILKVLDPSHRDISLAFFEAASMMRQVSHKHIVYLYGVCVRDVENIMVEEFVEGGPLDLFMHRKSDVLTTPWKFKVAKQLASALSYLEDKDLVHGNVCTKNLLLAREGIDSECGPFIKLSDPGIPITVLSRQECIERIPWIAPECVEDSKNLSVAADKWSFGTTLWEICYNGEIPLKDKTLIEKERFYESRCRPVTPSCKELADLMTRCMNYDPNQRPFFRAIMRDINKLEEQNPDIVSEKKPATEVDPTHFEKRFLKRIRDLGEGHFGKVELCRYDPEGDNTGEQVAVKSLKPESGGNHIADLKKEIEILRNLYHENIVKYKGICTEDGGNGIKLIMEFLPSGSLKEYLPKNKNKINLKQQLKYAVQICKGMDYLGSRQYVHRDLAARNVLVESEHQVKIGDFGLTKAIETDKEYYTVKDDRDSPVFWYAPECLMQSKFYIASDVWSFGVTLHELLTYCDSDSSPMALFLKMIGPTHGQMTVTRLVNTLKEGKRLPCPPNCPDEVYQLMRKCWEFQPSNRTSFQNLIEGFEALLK

| SMILES | JAK 1 (pKi) (JAK1) | Tall-1 (pIC50) [1, 2] | JAK 2 (pKi) (JAK2) | Tyk 2 (pKi) (Tyk2) | JAK 3 (pKi) (JAK3) | JAK3 (pKi)-JAK1 (pKi) (JAK3; [3]) | Tall-1 (pIC50) [1, 4] | JAK3 (pKi)-JAK1 (pKi) (JAK3; [5]) | Ki (JAK1) [nM] | IC50 [1, 6] [nM] | Ki (JAK2) [nM] | Ki (Tyk2) [nM] | Ki (JAK3) [nM] | IC50 [1, 7] [nM] |
| --- | --- | --- | --- | --- | --- | --- | --- | --- | --- | --- | --- | --- | --- | --- |
| C=CC(=O)N1CCC(N(C)c2cc(-c3ccc(O)c(Cl)c3)cc3[nH]ncc23)CC1 [Compound 7-7] | E (a pKi value of 7 or below (Ki of 100 nM or above)) | B (a pIC50 value between 6.7 (included) and 7.5 (IC50 between 200 nM and 32 nM)) | D (a pKi value between 7 and 8 (Ki between 100 nM and 10 nM)) | E (a pKi value of 7 or below (Ki of 100 nM or above)) | B (a pKi value between 9 and 10 (Ki between 1 nM and 0.1 nM)) | A (a value of 3 or above) |  |  |  |  |  |  |  |  |
| CN(C)C/C=C/C(=O)N1CC(C)(COc2nc(-c3ccc(O)c(F)c3)cc3[nH]ncc23)C1 [Compound 3-96] | E (a pKi value of 7 or below (Ki of 100 nM or above)) |  | E (a pKi value of 7 or below (Ki of 100 nM or above)) | E (a pKi value of 7 or below (Ki of 100 nM or above)) | B (a pKi value between 9 and 10 (Ki between 1 nM and 0.1 nM)) |  | B (a pIC50 value between 6.7 (included) and 7.5 (IC50 between 200 nM and 32 nM)) | A (a value of 3 or above) |  |  |  |  |  |  |
| C=CC(=O)N1CC(C#N)(COc2cc(-c3ccc(O)c(F)c3)nc3[nH]ncc23)C1 [Compound 3-111] | E (a pKi value of 7 or below (Ki of 100 nM or above)) |  | E (a pKi value of 7 or below (Ki of 100 nM or above)) | E (a pKi value of 7 or below (Ki of 100 nM or above)) | B (a pKi value between 9 and 10 (Ki between 1 nM and 0.1 nM)) |  | C (a pIC50 value between 6 and 6.7 (IC50 between 1 μM and 200 nM)) | A (a value of 3 or above) |  |  |  |  |  |  |
| C=CC(=O)N1CC(COc2nc(-c3ccc(O)c(F)c3)nc3[nH]ncc23)C1 [Compound 3-39] |  |  |  |  |  |  |  | A (a value of 3 or above) | > 100 | 31.6 to 200 | > 100 | > 100 | < 0.1 |  |
| C=CC(=O)N1CCO[C@@H](C(=O)Nc2cc(-c3ccc(O)c(Cl)c3)cc3[nH]ncc23)C1 [Compound 13-2] | E (a pKi value of 7 or below (Ki of 100 nM or above)) | A (a pIC50 value≥7.5 (IC50≤32 nM)) | E (a pKi value of 7 or below (Ki of 100 nM or above)) | E (a pKi value of 7 or below (Ki of 100 nM or above)) | B (a pKi value between 9 and 10 (Ki between 1 nM and 0.1 nM)) | A (a value of 3 or above) |  |  |  |  |  |  |  |  |
| C=CC(=O)N1CC(COc2nc(-c3ccc(O)c(Cl)c3)cc3[nH]ncc23)C1 [Compound 3-35] |  |  |  |  |  |  |  | A (a value of 3 or above) | > 100 | < 31.6 | > 100 | > 100 | 0.1 to 1 |  |
| C=CC(=O)N1C2CCC1CC(Oc1cc(-c3ccc(O)c(F)c3)cc3[nH]ncc13)C2 (stereo not drawn) [Compound 9-4] | E (a pKi value of 7 or below (Ki of 100 nM or above)) | A (a pIC50 value≥7.5 (IC50≤32 nM)) | C (a pKi value between 8 and 9 (Ki between 10 nM and 1 nM)) | E (a pKi value of 7 or below (Ki of 100 nM or above)) | A (a pKi value≥10 (Ki≤0.1 nM)) | A (a value of 3 or above) |  |  |  |  |  |  |  |  |
| C=CC(=O)N1CC(COc2cc(-c3ccc(O)cc3)cc3[nH]ncc23)C1 [Compound 3-1] |  |  |  |  |  |  |  | A (a value of 3 or above) | > 100 | < 31.6 | > 100 | > 100 | 0.1 to 1 |  |
| CCC1(COc2nc(-c3ccc(O)c(Cl)c3)cc3[nH]ncc23)CN(C(=O)/C=C/CN(C)C)C1 [Compound 3-99] | E (a pKi value of 7 or below (Ki of 100 nM or above)) |  | E (a pKi value of 7 or below (Ki of 100 nM or above)) | E (a pKi value of 7 or below (Ki of 100 nM or above)) | A (a pKi value≥10 (Ki≤0.1 nM)) |  | A (a pIC50 value≥7.5 (IC50≤32 nM)) | A (a value of 3 or above) |  |  |  |  |  |  |
| CN(C)C/C=C/C(=O)N1CC(C#N)(COc2nc(-c3ccc(O)c(F)c3)cc3[nH]ncc23)C1 [Compound 3-106] | E (a pKi value of 7 or below (Ki of 100 nM or above)) |  | E (a pKi value of 7 or below (Ki of 100 nM or above)) | E (a pKi value of 7 or below (Ki of 100 nM or above)) | B (a pKi value between 9 and 10 (Ki between 1 nM and 0.1 nM)) |  | B (a pIC50 value between 6.7 (included) and 7.5 (IC50 between 200 nM and 32 nM)) | A (a value of 3 or above) |  |  |  |  |  |  |
| C=CC(=O)N1CCC(Oc2cc(-c3ccc(O)cc3)nc3[nH]ncc23)CC1C (stereo not drawn) [Compound 13-13] | E (a pKi value of 7 or below (Ki of 100 nM or above)) | C (a pIC50 value between 6 and 6.7 (IC50 between 1 μM and 200 nM)) | E (a pKi value of 7 or below (Ki of 100 nM or above)) | E (a pKi value of 7 or below (Ki of 100 nM or above)) | B (a pKi value between 9 and 10 (Ki between 1 nM and 0.1 nM)) | A (a value of 3 or above) |  |  |  |  |  |  |  |  |
| C=CC(=O)N1CCSC[C@H]1C(=O)Nc1cc(-c2ccc(O)cc2)cc2[nH]ncc12 [Compound 12-64] |  |  |  |  |  | A (a value of 3 or above) |  |  | > 100 |  | > 100 | > 100 | < 0.1 | < 31.6 |
| C=CC(=O)N1CC[C@H](Oc2cc(-c3ccc(O)cc3)cc3[nH]nc(COC)c23)C1 [Compound 1-22] |  |  |  |  |  |  |  | A (a value of 3 or above) | > 100 | 31.6 to 200 | 10 to 100 | > 100 | < 0.1 |  |
| C=CC(=O)N1CC(COc2cc(-c3ccc(O)cc3)cc3[nH]nc(SC)c23)C1 [Compound 18-10] |  |  |  |  |  | A (a value of 3 or above) |  |  | > 100 |  | 10 to 100 | > 100 | < 0.1 | 31.6 to 200 |
| C=CC(=O)N1CCC(N(C)c2cc(-c3ccc(O)c(F)c3)cc3[nH]ncc23)CC1 [Compound 7-9] |  |  |  |  |  | A (a value of 3 or above) |  |  | > 100 |  | 10 to 100 | > 100 | < 0.1 | < 31.6 |
| CN(C)C/C=C/C(=O)N1CC(F)(COc2nc(-c3ccc(O)c(Cl)c3)cc3[nH]ncc23)C1 [Compound 3-91] |  |  |  |  |  |  |  | A (a value of 3 or above) | 10 to 100 | < 31.6 | 10 to 100 | > 100 | < 0.1 |  |
| C=CC(=O)N1CC[C@H](COc2cc(-c3ccc(O)c(F)c3)nc3[nH]ncc23)C1 [Compound 2-17] | E (a pKi value of 7 or below (Ki of 100 nM or above)) |  | E (a pKi value of 7 or below (Ki of 100 nM or above)) | E (a pKi value of 7 or below (Ki of 100 nM or above)) | A (a pKi value≥10 (Ki≤0.1 nM)) |  | B (a pIC50 value between 6.7 (included) and 7.5 (IC50 between 200 nM and 32 nM)) | A (a value of 3 or above) |  |  |  |  |  |  |
